Experimental findings from BindingDB's records for patent US10774052 (Celgene CAR LLC; Sanofi, 2020) are described below.

This assay concerns the target Fibroblast growth factor receptor 4 (Homo sapiens, UniProt P22455). Description: Omnia Assay Protocol for Potency Assessment Against (method a).

Chain of Fibroblast growth factor receptor 4 (P22455 whole entry): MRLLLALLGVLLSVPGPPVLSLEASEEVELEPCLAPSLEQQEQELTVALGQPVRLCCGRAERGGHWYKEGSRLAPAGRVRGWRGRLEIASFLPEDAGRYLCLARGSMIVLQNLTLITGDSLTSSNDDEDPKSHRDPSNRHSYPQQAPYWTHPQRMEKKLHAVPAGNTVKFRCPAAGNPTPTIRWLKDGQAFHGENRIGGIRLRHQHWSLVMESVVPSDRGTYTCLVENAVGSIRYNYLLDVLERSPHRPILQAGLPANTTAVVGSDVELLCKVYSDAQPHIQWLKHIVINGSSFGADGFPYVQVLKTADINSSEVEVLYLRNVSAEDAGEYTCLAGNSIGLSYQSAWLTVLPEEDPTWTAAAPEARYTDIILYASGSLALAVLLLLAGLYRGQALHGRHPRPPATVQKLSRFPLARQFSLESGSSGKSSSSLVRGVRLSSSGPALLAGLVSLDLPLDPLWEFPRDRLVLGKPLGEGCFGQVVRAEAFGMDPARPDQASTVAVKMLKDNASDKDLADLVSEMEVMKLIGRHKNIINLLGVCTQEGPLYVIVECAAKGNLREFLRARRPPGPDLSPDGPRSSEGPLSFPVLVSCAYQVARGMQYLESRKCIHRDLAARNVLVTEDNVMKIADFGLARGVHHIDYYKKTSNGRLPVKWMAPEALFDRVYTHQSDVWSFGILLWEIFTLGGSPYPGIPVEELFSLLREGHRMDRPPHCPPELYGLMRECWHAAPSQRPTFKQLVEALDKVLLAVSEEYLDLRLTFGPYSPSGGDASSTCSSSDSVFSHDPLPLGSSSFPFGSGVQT
Description: A solution of 1.4×ATP (AS001A) and 5× Tyr-Sox conjugated peptide substrate (KNZ3101) were prepared in 1× kinase reaction buffer consisting of 20 mM Tris, pH 7.5, 5 mM MgCl2, 1 mM EGTA, 5 mM β-glycerophosphate, 5% glycerol (10× stock, KB002A) and 0.2 mM DTT (DS001A). […] The serially diluted compounds were prepared on a Tecan EV0100. A second addition of 10 μl of Tyr-Sox FGFR4 substrate was added to each well and the kinase reactions were started with the addition of 35 μL of 1.4×ATP. The reactions were monitored every 71 seconds for 240 minutes at λex360/λem485 in a Synergy plate reader from BioTek (Winooski, Vt.).

Usually IC50 stands for the point on the concentration scale where inhibition reaches its midpoint. Higher therefore signals weaker potency in that assay. As to `C=CC(=O)Nc1cc(C2=CCN(CC)CC2)ccc1Nc1ncc2c(n1)N(CC)C(=O)N(c1cc(OC)cc(OC)c1)C2` [US10774052, Compound I-56], the IC50 was below 100 nM.
